ChEMBL document CHEMBL5543147, “Discovery and Characterization of a Novel Cereblon-Recruiting PRC1 Bridged PROTAC Degrader” (J Med Chem, 2024)
Activity calls are given as the source filed them. The calls are words filed in the database; no cut-off is given here.

Legend:
[1] = molecular target: Protein cereblon/E3 ubiquitin-protein ligase RING1 (Homo sapiens) (UniProt Q96SW2+Q06587); assay: PROTAC activity at CRBN/RING1A in human K562 cells assessed as degradation of RING1A protein expression at 1 to 10 uM incubated for 24 hrs by Western blotting analysis; format: cell-based; settings: dose 1-10 µM
[2] = molecular target: T1, Protein cereblon/Histone-lysine N-methyltransferase EZH2 (Homo sapiens) (UniProt Q15910+Q96SW2); assay: PROTAC activity at CRBN/EZH2 in human K562 cells assessed as degradation of EZH2 protein expression at 0.1 to 10 uM incubated for 24 hrs by Western blotting analysis; format: cell-based; settings: dose 0.1-10 µM
[3] = molecular target: T2, Protein cereblon/Polycomb complex protein BMI-1 (Homo sapiens, UniProt Q96SW2+P35226); assay: PROTAC activity at […] in human K562 cells assessed as degradation of BMI1 protein expression at 10 uM measured after 4 hrs by Western blotting analysis; format: cell-based
[4] = molecular target: T3, Protein cereblon/E3 ubiquitin-protein ligase RING2 (Homo sapiens, UniProt Q96SW2+Q99496); assay: PROTAC activity at CRBN/RING1B in human K562 cells assessed as degradation of RING1B protein expression at 10 uM incubated for 20 hrs in presence of MLN4924 by Western blotting analysis; format: cell-based
Target sequence in this assay (Q96SW2 whole entry): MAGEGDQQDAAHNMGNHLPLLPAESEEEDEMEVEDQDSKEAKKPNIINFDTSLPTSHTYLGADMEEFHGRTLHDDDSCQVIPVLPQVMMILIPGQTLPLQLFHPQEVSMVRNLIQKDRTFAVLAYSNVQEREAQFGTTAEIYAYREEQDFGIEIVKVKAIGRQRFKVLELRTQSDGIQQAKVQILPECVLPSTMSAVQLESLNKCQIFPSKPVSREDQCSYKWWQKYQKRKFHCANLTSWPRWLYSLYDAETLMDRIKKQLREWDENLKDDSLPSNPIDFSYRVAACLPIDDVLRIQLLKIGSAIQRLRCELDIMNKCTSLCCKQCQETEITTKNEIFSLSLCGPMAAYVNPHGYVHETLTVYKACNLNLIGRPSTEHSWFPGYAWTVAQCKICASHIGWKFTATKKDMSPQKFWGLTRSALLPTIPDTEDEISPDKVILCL
Target sequence in this assay (Q99496 2-336 partner limits assumed): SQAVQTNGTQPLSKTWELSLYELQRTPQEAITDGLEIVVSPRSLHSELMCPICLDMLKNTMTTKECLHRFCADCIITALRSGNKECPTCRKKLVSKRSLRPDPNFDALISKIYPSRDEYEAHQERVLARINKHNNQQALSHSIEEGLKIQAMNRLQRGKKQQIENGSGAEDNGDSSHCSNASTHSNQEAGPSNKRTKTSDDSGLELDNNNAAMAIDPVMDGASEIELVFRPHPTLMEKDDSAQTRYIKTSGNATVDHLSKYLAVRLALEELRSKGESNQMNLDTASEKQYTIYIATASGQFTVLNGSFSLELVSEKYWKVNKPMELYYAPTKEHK

[5] = molecular target: T3, Protein cereblon/E3 ubiquitin-protein ligase RING2; assay: PROTAC activity at CRBN/RING1B in human PC-3M cells assessed as degradation of RING1B protein expression at 5 uM incubated for 24 hrs by Western blotting analysis; format: cell-based
Target sequence in this assay (Q96SW2 whole entry): as the sequence (Q96SW2 whole entry) above
Target sequence in this assay (Q99496 2-336 partner limits assumed): as the sequence (Q99496 2-336 partner limits assumed) above

K562 [6] = assay: Antiproliferative activity against human K562 cells assessed as fold increase in HoxA mRNA expression at 10 uM incubated for 24 hrs by RT-qPCR analysis; format: functional
[7] = molecular target: von Hippel-Lindau disease tumor suppressor/Polycomb complex protein BMI-1 (Homo sapiens) (UniProt P40337+P35226); assay: PROTAC activity at […] in human 786-0 cells with defective VHL assessed as degradation of BMI1 protein expression at 10 uM incubated for 24 hrs by Western blotting analysis; format: cell-based
[8] = molecular target: T2, Protein cereblon/Polycomb complex protein BMI-1; assay: PROTAC activity at […] in human K562 cells assessed as degradation of BMI1 protein expression at 10 uM incubated for 20 hrs in presence of EED226 by Western blotting analysis; format: cell-based
[9] = molecular target: Protein cereblon/Polycomb protein EED (Homo sapiens, UniProt O75530+Q96SW2); assay: PROTAC activity at CRBN/EED in human K562 cells assessed as degradation of EED protein expression incubated for 24 hrs by Western blotting analysis; format: cell-based
[10] = molecular target: T2, Protein cereblon/Polycomb complex protein BMI-1; assay: PROTAC activity at […] in human K562 cells assessed as degradation of BMI1 protein expression at 10 uM incubated for 20 hrs in presence of MG132 by Western blotting analysis; format: cell-based
[11] = molecular target: T3, Protein cereblon/E3 ubiquitin-protein ligase RING2; assay: PROTAC activity at CRBN/RING1B in human K562 cells assessed as degradation of RING1B protein expression at 10 uM measured after 12 hrs by Western blotting analysis relative to control; format: cell-based
Target sequence in this assay (Q96SW2 whole entry): as the sequence (Q96SW2 whole entry) above
Target sequence in this assay (Q99496 2-336 partner limits assumed): as the sequence (Q99496 2-336 partner limits assumed) above

PC-3M [12] = assay: Antiproliferative activity against human PC-3M cells assessed as inhibition of cell growth at 1 to 10 uM incubated for 5 days by WST-8 assay; format: functional, cell-based; settings: dose 1-10 µM, time 5.0 day
[13] = molecular target: T3, Protein cereblon/E3 ubiquitin-protein ligase RING2; assay: PROTAC activity at CRBN/RING1B in human K562 cells assessed as degradation of RING1B protein expression at 10 uM incubated for 20 hrs in presence of MG132 by Western blotting analysis; format: cell-based
Target sequence in this assay (Q96SW2 whole entry): as the sequence (Q96SW2 whole entry) above
Target sequence in this assay (Q99496 2-336 partner limits assumed): as the sequence (Q99496 2-336 partner limits assumed) above

[14] = molecular target: T3, Protein cereblon/E3 ubiquitin-protein ligase RING2; assay: PROTAC activity at CRBN/RING1B in human K562 cells assessed as degradation of RING1B protein expression incubated for 24 hrs by Western blotting analysis; format: cell-based
Target sequence in this assay (Q96SW2 whole entry): as the sequence (Q96SW2 whole entry) above
Target sequence in this assay (Q99496 whole entry): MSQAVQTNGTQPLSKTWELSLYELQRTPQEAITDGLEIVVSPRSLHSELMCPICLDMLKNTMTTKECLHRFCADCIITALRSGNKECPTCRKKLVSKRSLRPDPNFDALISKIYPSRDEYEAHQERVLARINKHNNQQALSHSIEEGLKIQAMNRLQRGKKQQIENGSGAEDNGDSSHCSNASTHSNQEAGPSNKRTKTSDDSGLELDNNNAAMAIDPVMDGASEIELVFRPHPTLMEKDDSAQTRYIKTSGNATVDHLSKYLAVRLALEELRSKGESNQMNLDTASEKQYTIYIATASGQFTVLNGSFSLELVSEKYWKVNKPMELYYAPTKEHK

[15] = molecular target: T1, Protein cereblon/Histone-lysine N-methyltransferase EZH2 (Homo sapiens); assay: PROTAC activity at CRBN/EZH2 in human PC-3M cells assessed as degradation of EZH2 protein expression at 0.2 to 5 uM incubated for 24 hrs by Western blotting analysis; format: cell-based; settings: dose 0.2-5 µM
[16] = molecular target: T3, Protein cereblon/E3 ubiquitin-protein ligase RING2; assay: PROTAC activity at CRBN/RING1B in human K562 cells assessed as degradation of RING1B mRNA expression at 10 uM incubated for 20 hrs by RT-qPCR analysis; format: cell-based
Target sequence in this assay (Q96SW2 whole entry): as the sequence (Q96SW2 whole entry) above
Target sequence in this assay (Q99496 2-336 partner limits assumed): as the sequence (Q99496 2-336 partner limits assumed) above

PC-3M [17] = assay: Induction of PRC2 degradation in human PC-3M cells assessed as reduction of H3K27me3 chromatin mark at 1 uM incubated for 24 hrs by Western blotting analysis; format: cell-based
[18] = Drug concentration in Swiss albino mouse plasma at 50 mg/kg,ip administration measured after 8 hrs by LC-MS/MS analysis; format: ADME, organism-based
[19] = molecular target: Protein cereblon/Chromobox protein homolog 8 (Homo sapiens) (UniProt Q9HC52+Q96SW2); assay: PROTAC activity at CRBN/CBX8 in human K562 cells assessed as degradation of CBX8 protein expression at 1 to 10 uM incubated for 24 hrs by Western blotting analysis; format: cell-based; settings: dose 1-10 µM
786-0 [20] = assay: Induction of PRC1 degradation in human 786-0 cells with defective VHL assessed as reduction of H2AK119ub chromatin mark at 10 uM incubated for 24 hrs by Western blotting analysis; format: cell-based
[21] = molecular target: Protein cereblon/Zinc finger protein Aiolos (Homo sapiens) (UniProt Q96SW2+Q9UKT9); assay: PROTAC activity at CRBN/IKZF3 in human K562 cells assessed as degradation of IKZF3 protein at 0.1 to 10 uM incubated for 4 hrs by Western blotting analysis; format: cell-based; settings: dose 0.1-10 µM
MDA-MB-468 [22] = assay: Inhibition of colony formation in human MDA-MB-468 cells at 1 to 10 uM incubated for 14 days by crystal violet staining based assay; format: functional, cell-based; settings: dose 1-10 µM, time 14.0 day
[23] = molecular target: T3, Protein cereblon/E3 ubiquitin-protein ligase RING2; assay: PROTAC activity at CRBN/RING1B in human K562 cells assessed as degradation of RING1B protein expression at 10 uM incubated for 20 hrs in presence of pomalidomide by Western blotting analysis; format: cell-based
Target sequence in this assay (Q96SW2 whole entry): as the sequence (Q96SW2 whole entry) above
Target sequence in this assay (Q99496 2-336 partner limits assumed): as the sequence (Q99496 2-336 partner limits assumed) above

786-0 [24] = assay: Antiproliferative activity against human 786-0 cells assessed as inhibition of cell growth at 15 uM incubated for 7 days by WST-8 assay; format: functional, cell-based; settings: time 7.0 day
[25] = molecular target: T3, Protein cereblon/E3 ubiquitin-protein ligase RING2; assay: PROTAC activity at CRBN/RING1B in human K562 cells assessed as degradation of RING1B protein expression at 10 uM measured after 4 hrs by Western blotting analysis; format: cell-based
K562 [26] = assay: Antiproliferative activity against human K562 cells assessed as fold increase in HoxD mRNA expression at 10 uM incubated for 24 hrs by RT-qPCR analysis; format: functional
[27] = molecular target: T2, Protein cereblon/Polycomb complex protein BMI-1; assay: PROTAC activity at CRBN/BIM1 in human PC-3M cells assessed as degradation of BMI1 protein expression at 5 uM incubated for 24 hrs by Western blotting analysis; format: cell-based
[28] = molecular target: T2, Protein cereblon/Polycomb complex protein BMI-1; assay: PROTAC activity at CRBN/BIM1 in human PC-3M cells assessed as degradation of BMI1 protein expression at 1 uM incubated for 24 hrs by Western blotting analysis; format: cell-based
MDA-MB-468 [29] = assay: Induction of PRC2 degradation in human MDA-MB-468 cells assessed as reduction of H3K27me3 chromatin mark at 5 uM incubated for 24 hrs by Western blotting analysis; format: cell-based

T2 sequence (P35226 whole entry, looked up): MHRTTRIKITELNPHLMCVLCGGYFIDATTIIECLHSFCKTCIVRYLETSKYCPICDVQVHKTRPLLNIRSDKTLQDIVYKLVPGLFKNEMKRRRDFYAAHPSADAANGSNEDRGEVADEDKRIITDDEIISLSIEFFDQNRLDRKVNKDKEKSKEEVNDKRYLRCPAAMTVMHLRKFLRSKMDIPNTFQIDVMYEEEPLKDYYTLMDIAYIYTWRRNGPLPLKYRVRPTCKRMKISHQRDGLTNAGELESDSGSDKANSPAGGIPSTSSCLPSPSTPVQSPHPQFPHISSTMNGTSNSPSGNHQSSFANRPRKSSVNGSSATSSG
T2 sequence (Q96SW2 whole entry, looked up): as the sequence (Q96SW2 whole entry) above
T1 sequence (Q15910 whole entry, looked up): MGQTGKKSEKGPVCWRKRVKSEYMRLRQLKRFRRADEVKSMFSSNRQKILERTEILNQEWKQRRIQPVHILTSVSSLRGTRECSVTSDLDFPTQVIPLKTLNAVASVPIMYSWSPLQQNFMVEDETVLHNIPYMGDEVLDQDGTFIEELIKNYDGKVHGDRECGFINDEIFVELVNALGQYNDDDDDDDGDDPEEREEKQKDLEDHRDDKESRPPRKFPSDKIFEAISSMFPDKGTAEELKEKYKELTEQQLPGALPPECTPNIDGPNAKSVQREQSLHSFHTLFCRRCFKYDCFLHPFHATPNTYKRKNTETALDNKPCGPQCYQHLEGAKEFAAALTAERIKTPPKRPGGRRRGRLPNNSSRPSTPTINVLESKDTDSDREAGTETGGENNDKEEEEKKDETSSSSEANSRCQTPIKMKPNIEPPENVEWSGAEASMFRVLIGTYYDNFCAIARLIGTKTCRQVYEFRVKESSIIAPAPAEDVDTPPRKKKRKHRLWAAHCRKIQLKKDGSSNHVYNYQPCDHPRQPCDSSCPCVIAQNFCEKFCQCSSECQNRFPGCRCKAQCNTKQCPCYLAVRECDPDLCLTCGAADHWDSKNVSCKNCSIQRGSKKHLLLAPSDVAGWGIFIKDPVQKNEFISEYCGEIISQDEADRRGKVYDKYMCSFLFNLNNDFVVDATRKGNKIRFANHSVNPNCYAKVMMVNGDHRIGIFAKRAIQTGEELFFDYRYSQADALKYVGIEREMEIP
T1 sequence (Q96SW2 whole entry, looked up): as the sequence (Q96SW2 whole entry) above
Protein cereblon/Chromobox protein homolog 8 (Homo sapiens), sequence (Q96SW2 whole entry, looked up): as the sequence (Q96SW2 whole entry) above
Protein cereblon/Chromobox protein homolog 8 (Homo sapiens), sequence (Q9HC52 whole entry, looked up): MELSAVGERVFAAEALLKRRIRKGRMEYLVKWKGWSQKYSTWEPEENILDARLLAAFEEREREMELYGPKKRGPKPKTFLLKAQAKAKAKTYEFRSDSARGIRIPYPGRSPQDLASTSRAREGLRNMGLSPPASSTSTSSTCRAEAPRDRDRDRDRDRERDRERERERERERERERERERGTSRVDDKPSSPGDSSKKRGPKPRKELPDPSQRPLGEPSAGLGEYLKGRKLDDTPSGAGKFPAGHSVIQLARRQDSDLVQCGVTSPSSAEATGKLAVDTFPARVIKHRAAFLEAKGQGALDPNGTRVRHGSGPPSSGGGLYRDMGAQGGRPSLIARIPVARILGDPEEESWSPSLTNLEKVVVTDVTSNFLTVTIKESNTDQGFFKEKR

With `O=C(CNc1cccc2c1C(=O)N(C1CCC(=O)NC1=O)C2=O)NCCCCN1CCN(c2ccc(-c3cnc(NCc4ccco4)n4cnnc34)cc2)CC1` (centres undefined) the Activity [1] was “Active”, the Activity [2] was “Active” and the Activity [3] was “Active”. For the same compound, the Activity [4] was “inactive”, the Activity [5] was “Active” and the “fold change (FC)” value (K562 [6]) was 3.1. For the same compound, the Activity [7] was “Active”, the Activity [8] was “inactive” and the DC50 [9] was 3300 nM. The Activity [10] was “inactive”, the Activity [11] was 100% and the Activity (PC-3M [12]) was “Active”. For the same compound, the Activity [13] was “inactive”, the DC50 [14] was 1300 nM and the Activity [15] was “inactive”. The Activity [16] was “inactive”, the Activity (PC-3M [17]) was “inactive” and the concentration at 8 h [18] was greater than 500 nM. The Activity [19] was “inactive”, the Activity (786-0 [20]) was “Active” and the Activity [21] was “inactive”. The inhibition (MDA-MB-468 [22]) was “Active”, the Activity [23] was “inactive” and the Activity (786-0 [24]) was “Active”. The Activity [25] was “Active”, the “fold change (FC)” value (K562 [26]) was 2.3 and the Activity [27] was “Active”. The Activity [28] was “Active” and the Activity (MDA-MB-468 [29]) was “inactive”.
